Test results as given in US8440590B2, “Method for controlling soybean rust” (priority 2006, dated 2013).

Key:
Format in all cases: in vivo
[1] = system: soybean cv. S-40-R9 (RR-soybean); experiment: Crop tolerance test (germination after seed treatment), cv. S-40-R9
Method: (§1) Fifty soybean seeds of cv. S-40-R9 (RR-soybean) or cv. Williams (not GM) are sown 2 cm deep into trays filled with quarz sand. Seeds are treated prior to sowing with the formulated ais. The plants are grown at 20-23° C. in a greenhouse. If necessary, artificial lighting is supplied to give a 14 hr day.
(§2) Plant emergence 6 DAS and final stand 11 DAS is counted.

[2] = system: soybean cv. Williams (not GM); experiment: Crop tolerance test (germination after seed treatment), cv. Williams
Method: as §1, §2

[3] = system: Phakopsora pachyrhizi; experiment: Test for rust activity, leaf discs from seed-treated plants, cv. S-40-R9; conditions: 11 DAI
Method: as §1
(§3) For the soybean rust assay, plants are transplanted 13 DAS into 8 cm pots filled with soil. 13 days after transplanting leaf discs are cut from the first and second true leaves and transferred to multiwell plates filled with water agar. 1 day later the leaf discs are inoculated with Phakopsora pachyrhizi. Assessment of the disease incidence is done 11 DAI (days after inoculation).

[4] = system: Phakopsora pachyrhizi; experiment: Test for rust activity, leaf discs from seed-treated plants, cv. Williams; conditions: 11 DAI
Method: as §1, §3

[5] = GA seed treatment 1 g ai/100 kg, cv. S-40-R9, fifty seeds sown
[6] = GA seed treatment 2 g ai/100 kg, cv. S-40-R9, fifty seeds sown
[7] = GA seed treatment 1 g ai/100 kg
[8] = GA seed treatment 2 g ai/100 kg
[9] = GA seed treatment 1 g ai/100 kg, cv. Williams, fifty seeds sown
[10] = GA seed treatment 2 g ai/100 kg, cv. Williams, fifty seeds sown

## CC(C1CC1)C(O)(Cn1cncn1)c1ccc(Cl)cc1 (stereo not shown) [Cyproconazole (CCZ), cyproconazole]
[1]; in vivo
  Effect on plant numbers and size (phytotoxicity): severe reductions in plant numbers and size
  Germination % Emergence 6 DAS: 0%
  Germination Count 6 DAS: 0
[2]; in vivo
  Germination % Emergence 6 DAS: 0%
  Germination Count 6 DAS: 0

## C=C1C[C@]23C[C@@]1(O)CC[C@H]2[C@@]12C=C[C@H](O)[C@@](C)(C(=O)O1)[C@H]2[C@@H]3C(=O)O [Gibberelic acid (GA), gibberellic acid (gibberellin A3)]
[1]; [5]
  Germination % Emergence 6 DAS: 100%
  Germination % Final Stand 11 DAS: 100%
  Germination Count 6 DAS: 50
  Germination Count 11 DAS: 50
[1]; [6]
  Germination % Emergence 6 DAS: 96%
  Germination % Final Stand 11 DAS: 96%
  Germination Count 6 DAS: 48
  Germination Count 11 DAS: 48
[3]; [7]
  1st Leaf % Activity: 0.0%
  1st Leaf % Disease: 87.8%
  2nd Leaf % Activity: 0.0%
  2nd Leaf % Disease: 71.1%
[3]; [8]
  1st Leaf % Activity: 0.0%
  1st Leaf % Disease: 82.8%
  2nd Leaf % Activity: 0.0%
  2nd Leaf % Disease: 68.9%
[2]; [9]
  Germination % Emergence 6 DAS: 100%
  Germination % Final Stand 11 DAS: 100%
  Germination Count 6 DAS: 50
  Germination Count 11 DAS: 50
[2]; [10]
  Germination % Emergence 6 DAS: 98%
  Germination % Final Stand 11 DAS: 98%
  Germination Count 6 DAS: 49
  Germination Count 11 DAS: 49
[4]; [7]
  1st Leaf % Activity: 0.0%
  1st Leaf % Disease: 88.9%
  2nd Leaf % Activity: 32.4%
  2nd Leaf % Disease: 48.3%
[4]; [8]
  1st Leaf % Activity: 0.0%
  1st Leaf % Disease: 87.2%
  2nd Leaf % Activity: 28.4%
  2nd Leaf % Disease: 51.1%
